Results published in patent publication US7442398B2, “Phytase produced from Citrobacter braakii” (Republic of National Fisheries Research and Development …, priority 2003, dated 2008).

Experiments:
[1] = molecular target: T1, Citrobacter braakii YH-15 phytase, wild type, SEQ. ID. No 7 (N-terminal SEQ. ID. No 2) (Citrobacter braakii, UniProt Q2VY22); test: Enzyme activity of YH-15 phytase according to metal ions and inhibitors; type: biochemical; conditions: for effect of inhibitor on enzyme activity: concentration not given, reagents involved in disulfate bond
T1 construct: signal peptide removed
Description: (§1) The present inventors measured the activity of phytase produced by the 5 strains above (Table 1). Inorganic phosphorus quantitative method of Fiske, et al. was used for measuring the activity of phytase in culture solution and in cell precipitate. Particularly, 400 μl of substrate solution (2 mM sodium phytate in 0.1 M sodium acetate buffer, pH 5.0) was added to 100 μl of enzyme solution diluted by required dilution ratio, which was reacted at 37° C. for 30 minutes. Then, 500 μl of 5% TCA solution was added thereto, which was just left at 0° C. for 10 minutes to stop the reaction. As for a control (blank), TCA (trichloroacetic acid) solution was added to enzyme solution to inactivate the enzyme and then substrate solution was added thereto, which was left for a while. 4 ml of reagent A (1:1:1:2 ratio of 6 N H2SO4/2.5% ammonium molybdate/10% ascorbic acid/H2O) was added, followed by reaction at 37° C. for 30 minutes. Then, activities in enzyme solution and in a control were measured at 820 nm. 1 unit of the enzyme was determined to be the enzyme amount releasing 1 μmole of phosphate for 1 minute.
(§2) The present inventors investigated the effect of metal ions and inhibitors on the enzyme activity of phytase of the present invention.

[2] = system: YH-15 phytase; test: Substrate specificity of phytase; type: biochemical, Citrobacter braakii YH-15; conditions: for Relative activity (%): substrate, phytate = 100
Description: (§3) Substrate specificity of phytase to various phosphate ester compounds was investigated.

[3] = system: YH-15 phytase; test: Enzyme activity of phytase according to metal ions and inhibitors; type: biochemical, Citrobacter braakii YH-15; conditions: for inhibition of enzyme activity by metal ions: concentration of 10 mM; for enzyme activity after being left with denaturant: 37° C. for 2 hours, 8 M urea or 0.0024% SDS
Description: as §2

[4] = system: O=P(O)(O)O[C@H]1[C@H](OP(=O)(O)O)[C@@H](OP(=O)(O)O)[C@H](OP(=O)(O)O)[C@@H](OP(=O)(O)O)[C@H]1OP(=O)(O)O; test: Substrate kinetics of purified YH-15 phytase (phosphate release from phytate); type: biochemical, Citrobacter braakii YH-15; conditions: other: substrate phytate (sodium phytate); pH 5.0; 37.0 °C
Description: as §1
(§4) The enzyme activity of phytase included in each sample prepared from each purification stage of the above Example <3-2> was investigated (Table 3). Protein content was quantified by BCA protein quantification kit provided by Sigma, co. At that time, BSA (bovine serum albumin) was used as a standard protein. Specific activity of the purified phytase to phytate was 3,457 units/mg, recovery rate was 28%, and the final phytase was purified by 12,950 fold (FIG. 2).
as §3

[5] = molecular target: T1, Citrobacter braakii YH-15 phytase, wild type, SEQ. ID. No 7 (N-terminal SEQ. ID. No 2); test: as above; type: biochemical; conditions: substrate phytate (sodium phytate)
Description: as §1, §4, §3

[6] = Specific activity and kinetics of purified phytase to phytate; type: biochemical, Citrobacter braakii YH-15
Description: as §1
The enzyme activity of phytase included in each sample prepared from each purification stage of the above Example <3-2> was investigated (Table 3). Protein content was quantified by BCA protein quantification kit provided by Sigma, co. […]

[7] = Enzyme activity of phytase according to temperature and pH; type: biochemical, Citrobacter braakii YH-15
Description: The present invention investigated an enzyme activity of phytase, according to temperature and pH, purified through chromatography using Mono S column.
When the enzyme was left at 55° C. for 10 minutes, 75% of the activity was still remained.
50% of the enzyme activity was still maintained at pH 2.5. […] But, as the protein was left under pH 3.0 for 4 hours, the enzyme activity was almost lost. From temperature and pH test with the protein, phytase of the present invention was believed to be very suitable for being used as a feed additive for monogastric animals.

[8] = system: proteases; test: Effect of proteases on the enzyme activity of phytase; type: biochemical
Description: The present inventors investigated the effect of proteases on the enzyme activity of phytase. Particularly, phytase was left at 37° C. for 2 hours with pepsin and trypsin, resulting in no changes in the enzyme activity. But, as papain, elastase and pancreatin were added, 70˜85% of the enzyme activity remained.

In the case of `OCCS` [2-mercaptoethanol], the “effect of inhibitor on enzyme activity” value [1] is reported as “hardly affected”.

In the case of `O=P(O)(O)O[C@H]1O[C@H](CO)[C@@H](O)[C@H](O)[C@H]1O` [Glucose-1-phosphate], the “Relative activity (%)” value [2] is reported as 0.42%.

For `O=S(=O)([O-])[O-].[Zn+2]` [ZnSO4], the “inhibition of enzyme activity by metal ions” value (from here on “inhibition … by metal ions”) [3] was “strongly inhibited” and the “Relative activity (%)” value ([3]; metal ion or inhibitor 8 mM) was 33%.

For `CCCCCCCCCCCCOS(=O)(=O)[O-].[Na+]` [SDS], the “enzyme activity after being left with denaturant” value [3] was “almost lost”.

In the case of `[Cl-].[Na+]` [NaCl], the “inhibition of enzyme activity” value ([3]; concentration of 1 M) is reported as 50%, the “Relative activity (%)” value ([3]; metal ion or inhibitor 6 mM) is reported as 102% and the “Relative activity (%)” value ([3]; metal ion or inhibitor 1000 mM) is reported as 54%.

For “Citrobacter braakii YH-15 phytase, wild type, SEQ. ID. No 7 (N-terminal SEQ. ID. No 2) (Citrobacter braakii)”, the Km [4] was 460 µM and the Vmax [4] was 6,027 U/mg.

With `O=C[C@@H](O)[C@@H](O)[C@H](O)[C@H](O)COP(=O)(O)O` [Mannose-6-phosphate] the “Relative activity (%)” value [2] was 0.01%.

For `[Cl][Cd][Cl]` [CdCl2], the “Relative activity (%)” value ([3]; metal ion or inhibitor 6 mM) was 101%.

In the case of `Nc1ncnc2c1ncn2[C@@H]1O[C@H](COP(=O)(O)OP(=O)(O)OP(=O)(O)O)[C@@H](O)[C@H]1O` [ATP], the “Relative activity (%)” value [2] is reported as 1.86%.

For `O=C(O)CN(CCN(CC(=O)O)CC(=O)O)CC(=O)O` [EDTA], the activity at 6000 µM ([1]; read-out: Relative activity (%)) was 98%.

In the case of `[Cl][Mn][Cl]` [MnCl2], the “Relative activity (%)” value ([3]; metal ion or inhibitor 6 mM) is reported as 92%.

With `O=C(CO)[C@@H](O)[C@H](O)[C@H](O)COP(=O)(O)O` [Fructose-6-phosphate] the “Relative activity (%)” value [2] was 0.75%.

For `O=S(=O)([O-])[O-].[Ni+2]` [NiSO4], the “Relative activity (%)” value ([3]; metal ion or inhibitor 6 mM) was 88%.

For `O=P(O)(O)OCC(O)CO` (centres unmarked) [Glycerophosphate], the “Relative activity (%)” value [2] was 0.57%.

With `O=P(O)(O)O[C@H]1[C@H](OP(=O)(O)O)[C@@H](OP(=O)(O)O)[C@H](OP(=O)(O)O)[C@@H](OP(=O)(O)O)[C@H]1OP(=O)(O)O` [Phytate, myo-inositol 1,2,3,4,5,6 hexakis dihydrogen phosphate] the “ability of phytase to decompose the substrate” value [2] was “strong ability to decompose” and the “Relative activity (%)” value [2] was 100%.

For `O=S(=O)([O-])[O-].[Cu+2]` [CuSO4], the “inhibition … by metal ions” value [3] was “strongly inhibited” and the “Relative activity (%)” value ([3]; metal ion or inhibitor 6 mM) was 38%.

For `OC(CS)C(O)CS` (centres unmarked) [dithothreitol], the “effect of inhibitor on enzyme activity” value [1] was “hardly affected”.

With `O=[N+]([O-])c1ccc(OP(=O)(O)O)cc1` [p-nitrophenyl phosphate] the “Relative activity (%)” value [2] was 11.27%.

In the case of `O=P([O-])([O-])OP(=O)([O-])[O-].[Na+].[Na+].[Na+].[Na+]` [Tetrasodium pyrophosphate], the “Relative activity (%)” value [2] is reported as 5.95%.

With `[Ca+2].[Cl-].[Cl-]` [CaCl2] the “Relative activity (%)” value ([3]; metal ion or inhibitor 6 mM) was 87%.

For `[Cl-].[Cl-].[Mg+2]` [MgCl2], the “Relative activity (%)” value ([3]; metal ion or inhibitor 6 mM) was 71%.

In the case of `[Cl-].[K+]` [KCl], the “Relative activity (%)” value ([3]; metal ion or inhibitor 6 mM) is reported as 95%.

With `Nc1ncnc2c1ncn2[C@@H]1O[C@H](COP(=O)(O)OP(=O)(O)O)[C@@H](O)[C@H]1O` [ADP] the “Relative activity (%)” value [2] was 1.04%.

With `O=C[C@H](O)[C@@H](O)[C@H](O)[C@H](O)COP(=O)(O)O` [Glucose-6-phosphate] the “Relative activity (%)” value [2] was 0.33%.

For `NC(N)=O` [urea], the “enzyme activity after being left with denaturant” value [3] was “almost lost” and the “enzyme activity after incubation with inhibitor” value ([1]; 8 M, 37° C., 2 hours) was “almost lost”.

With `O=P(O)(O)O[C@H]1[C@H](OP(=O)(O)O)[C@@H](OP(=O)(O)O)[C@H](OP(=O)(O)O)[C@@H](OP(=O)(O)O)[C@H]1OP(=O)(O)O` [phytate, myo-inositol 1,2,3,4,5,6 hexakis dihydrogen phosphate] the Vmax [5] was 6,027 U/mg.

For `[Cl][Fe]([Cl])[Cl]` [FeCl3], the “inhibition … by metal ions” value [3] was “strongly inhibited” and the “Relative activity (%)” value ([3]; metal ion or inhibitor 6 mM) was 19%.

B1: YH-15 phytase: novel phytase enzyme of about 47 kDa produced by Citrobacter braakii YH-15, SEQ. ID. No 7 (protein)
chain: MSTFIIRLLIFSLLCGSFSIHAEEQNGMKLERVVIVSRHGVRAPTKFTPIMKDVTPDQWPQWDVPLGWLTPRGGELVSELGQYQRLWFTSKGLLNNQTCPSPGQVAVIADTDQRTRKTGEAFLAGLAPKCQIQVHYQKDEEKNDPLFNPVKMGKCSFNTLKVKNAILERAGGNIELYTQRYQSSFRTLENVLNFSQSETCKTTEKSTKCTLPEALPSEFKVTPDNVSLPGAWSLSSTLTEIFLLQEAQGMPQVAWGRITGEKEWRDLLSLHNAQFDLLQRTPEVARSRATPLLDMIDTALLTNGTTENRYGIKLPVSLLFIAGHDTNLANLSGALDLKWSLPGQPDNTPPGGELVFEKWKRTSDNTDWVQVSFVYQTLRDMRDIQPLSLEKPAGKVDLKLIACEEKNSQGMCSLKSFSRLIKEIRVPECAVTE
modifications: Citrobacter braakii YH-15; PEPTIDE (1)..(433) phytase
In the case of B1, the “Specific activity of the purified phytase to phytate” value ([6]; final purified phytase) is reported as 3,457 units/mg, the Specific activity ([6]; purification stage Mono SHR 5/5 (final)) is reported as 3,457 U/mg and the “pH of highest activity” value [7] is reported as 4.0. For the same molecule, the “temperature of highest activity” value [7] was 50 °C, the “activity on storage at pH 3.0-4.5” value ([7]; 37° C., pH 3.0-4.5, 7 days) was “very stably maintained” and the “activity remained at pH 7.0” value ([7]; 37° C., pH 7.0, 7 days) was 50%. The “activity after holding at 50° C.” value ([7]; 50° C. for 1 hour) was “stably maintained”, the “activity remained after heat” value ([7]; left at 55° C. for 10 minutes) was 75% and the “enzyme activity maintained at pH 2.5” value ([7]; pH 2.5) was 50%. For the same molecule, the “activity after being left under pH 3.0” value ([7]; under pH 3.0 for 4 hours) was “almost lost”, the “enzyme activity after pepsin” value ([8]; 37° C. for 2 hours with pepsin) was “no changes” and the “enzyme activity after trypsin” value ([8]; 37° C. for 2 hours with trypsin) was “no changes”. For the same molecule, the “enzyme activity remained after elastase” value ([8]; elastase added) was 70˜85%, the “enzyme activity remained after pancreatin” value ([8]; pancreatin added) was 70˜85% and the “enzyme activity remained after papain” value ([8]; papain added) was 70˜85%.
